Assay results taken from patent publication US20030055103A1, “Utilization of achyrocline satureoides ("Marcela") extracts and liposomal preparations of natural and semi-synthetic flavonoids for the prevention and treatment of the consequences of stroke and neurodegenerative diseases” (priority 2001, published 2003).
“Also recorded” adds a separate entry of the source. Like-named read-outs stand apart in the source and are kept apart here. Peptide text beside a SMILES is read from it.

Experiments:
[1] = tested on: spontaneous lipoperoxidation of rat's brain membranes; assay: Spontaneous lipoperoxidation of rat brain membranes (malondialdehyde production); format: biochemical; settings: for antioxidant potency / capacity: anti-lipoperoxidation assay (test not given)
[2] = tested on: PC12 cells; assay: PC12 cell survival after H2O2 oxidative insult (MTT reduction); format: cell-based; settings: 200 μM H2O2 30 min, result in words
Description: PC12 cells (Greene and Tischler 1976, Shafer and Atchison 1991) were grown in RPMI supplemented with 10% heat-inactivated horse serum (HSI), 5% fetal bovine serum (FBS), penicillin and streptomycin on a collagen matrix. Typically, cells were sow (1:4 in a total volume of 10 ml complete medium) in 100×20 mm cell culture dishes and grown at 37° C. in at atmosphere of 5% CO2 for a week. Media was changed twice a week. Cultures were not used in more than 25 passages.
Cells were plated at a low density (100 cells/μl) in 200 μl of complete medium on 96-well cell culture plates on a poli-D-lysine matrix to do all the experiments except the comet assay. To do the latter, 100×20mm-cell culture dishes were adequate. All the experiments were started 24 hrs after the sow.
Cells were exposed to H2O2 200 μM during half an hour (medium was changed to stop the treatment) and all the evaluations were fulfilled 2 hrs later.
This assay measures the reduction of 3-(4,5-dimethyl-thiazol-2-yl)-2,5-diphenil tetrazolium bromide (MTT) (yellowish) to formazan (blue) by mitochondrial dehydrogenases of the living cells. The fresh complete medium added after the treatment was supplemented with MTT (0.5 mg/ml ). Following an incubation period of 2 hrs, it was removed and half-its volume of dimethylsulfoxide (DMSO) was added to achieve solubilization. Absorption values were read immediately at 570-640 nm (Denizot and Lang 1986). […]

[3] = tested on: rats injected with 6-OHDA in the SN; assay: 6-OHDA lesion of the Substantia Nigra (experimental parkinsonism), striatal dopamine; format: in vivo, rat; settings: given intraperitoneally before 6-OHDA, assessed eight days after, result in words
[4] = tested on: male Sprague-Dawley rats; assay: Permanent focal MCA occlusion, TTC morphometry and histology; format: in vivo, rat; settings: result in words
[5] = Acute toxicity (species not given); settings: intraperitoneal or oral, doses up to 300 mg/kg
[6] = Quercetin concentration in rat blood after intraperitoneal administration; format: in vivo
Description: FIG. 17. A graph of Quercetin concentration in rat blood at different periods after intraperitoneal administration.

[7] = inhibition of spontaneous lipoperoxidation, rat brain membranes, read-out: IC50

SMILES	IC50 [1, 7] [µM]	protection / cell survival after H2O2 insult [2]	neuroprotection: dopamine level in ipsilateral striatum [3]	further results
Oc1cc(O)c2c(c1)OC(c1ccc(O)c(O)c1)C(O)C2 (stereo not drawn) [Catequin]	28.3	–	–	–
CC[C@H](C)[C@H](NC(=O)[C@H](CCC(=O)O)NC(=O)[C@@H](NC(C)=O)C(C)C)C(=O)N[C@H](C=O)CC(=O)O [VEID, acetyl-L-valyl-L-glutamyl-L-isoleucyl-L-aspart-1-al] (Ac-VEID-aldehyde)	–	block H2O2-induced cell death	–	–
COc1cc2c(cc1O)C[C@H]1c3c(cc(O)c(OC)c3-2)CCN1C [Boldine]	12.8	only marcela extracts, quercetin or structurally similar flavonoids protected PC12 cells; also recorded: did not increased survival	did not revert in vivo the oxidative lesion; also recorded: did not show neuroprotection activity	antioxidant potency / capacity ([1]; result in words): highest antioxidant potency
O=c1c(O)c(-c2ccc(O)c(O)c2)oc2cc(O)ccc12 [fisetin]	–	did show neuroprotectant capacity	–	–
Cc1c(C)c2c(c(C)c1O)CC[C@@](C)(CCC[C@H](C)CCC[C@H](C)CCCC(C)C)O2 [vitamin E, alpha-tocopherol]	–	only marcela extracts, quercetin or structurally similar flavonoids protected PC12 cells	–	protection / cell survival after H2O2 insult ([2]; listed as alpha-tocopherol): did not increased survival
COc1ccc2[nH]cc(CCNC(C)=O)c2c1 [Melatonine]	1400	did not increased survival	weaker in its neuroprotection	–
CC(=O)N[C@@H](CC(C)C)C(=O)N[C@@H](CCC(=O)O)C(=O)N[C@@H](Cc1c[nH]cn1)C(=O)N[C@H](C=O)CC(=O)O [LEHD, acetyl-L-leucyl-L-glutamyl-L-histidyl-L-aspart-1-al] (Ac-LEHD-aldehyde)	–	block H2O2-induced cell death	–	–
Cc1c(C)c2c(c(C)c1O)CCC(C)(C(=O)O)O2 (stereo not drawn) [trolox]	–	only marcela extracts, quercetin or structurally similar flavonoids protected PC12 cells	–	–
O=c1c(O)c(-c2cc(O)c(O)c(O)c2)oc2cc(O)cc(O)c12 [myricetin]	–	did show neuroprotectant capacity	–	–
Cn1cnc(N)c2ncnc1-2 [3-MT, 3-methyladenine]	–	block H2O2-induced cell death	–	–
CN1CCCC1c1cccnc1 (stereo not drawn) [Nicotine]	–	–	reverted dopamine levels in the ipsilateral striatum	antioxidant potency / capacity ([1]; result in words): negligible
O=c1c(O)c(-c2ccc(O)c(O)c2)oc2cc(O)cc(O)c12 [Quercetin]	3.7	protected PC12 cells; also recorded: protects PC12 cells against H2O2; also recorded: Neuroprotectan effect	did not show neuroprotection activity	neuroprotection: dopamine level in ipsilateral striatum ([3]; listed as quercetin): did not revert in vivo the oxidative lesion; also recorded: appear not to have neuroprotectant effects in vivo; ischemic lesion area ([4]; liposomal quercetin 30 mg/kg i.p. 30 min after ischemia, TTC at 24 hrs): clearly decreased the lesion area; also recorded: marked and significant decrease of the ischemic area; also recorded: recovery of the ischemic areas is clear cut; number of neurons in Nissl stained slices ([4]; striatum and cortex, 24 hrs after occlusion): higher than ischemic rats and non different from controls; malondialdehyde production during spontaneous lipoperoxidation ([1]; result in words): decreased malondialdehyde production; antioxidant potency / capacity ([1]; result in words): potent antioxidants; IC50 ([1]; spontaneous lipoperoxidation, marcela expressed in quercetin equivalents): 1.11 µg/mL; adverse effects in acute toxicity experiments [5]: did not show any adverse effects; time quercetin is detected in blood [6]: up to two
O=C(O)/C=C/c1ccc(O)c(O)c1 [Caffeic acid]	48.6	–	–	–
